We go through four molecules from US20240239761A1, “BICYCLIC PHENOL COMPOUNDS AND USE THEREOF” (MEDSHINE DISCOVERY INC., priority 2021, published 2024).

Like-named read-outs stand apart in the source and are kept apart here.

The nature of data set [1]: Pharmacokinetic study of oral and intravenous administration in rats. To be noted: male SD rats; for half-life: read-out: Half-life T1/2 (converted). It is filed as in vivo, rat. The protocol: Pharmacokinetic study of oral and intravenous administration of WX001 in rats
Male SD rats were selected, and given the test compound as detailed in Table 3.
Whole blood was collected for a certain period of time and prepared into plasma. The drug concentration was analyzed by the LC-MS/MS method, and the pharmacokinetic parameters were calculated using Phoenix WinNonlin software (Pharsight, USA).

The target in a further data set is THRβ (Homo sapiens, UniProt P10828). Kind of data set: GeneBLAzer TR beta-UAS-bla HEK 293T cell-based agonist assay. To be noted: for THRß maximum agnostic capability: TR beta-UAS-bla HEK 293T cells, T3 as positive control. The text has this: The present experiment employs the GeneBLAzer® TR alpha/beta-UAS-bla HEK 293T Cell-based Assay developed by ThermoFisher. The underlying principle is that TR alpha-UAS-bla HEK 293T Cell and TR beta-UAS-bla HEK 293T Cell express B-lactamase, a reporter gene controlled by the upstream UAS sequence. When a compound enters the cell and binds to THR, the receptor binds to the DNA binding region to form a complete GAL4 dimer that utilizes the GAL4-UAS system to activate β-lactamase expression, which then decomposes the substrate CCF4-AM (coumarin). The resulting product, when excited at 409 nm, emits fluorescence at a wavelength of 447 nm. If β-lactamase is not expressed, the product generates fluorescence at a wavelength of 520 nm through FRET under excitation at 409 nm. By detecting the ratio of the two fluorescences (447 nm/520 nm), the binding status of the compound to the protein can be determined, thus allowing the calculation of the EC50 of the compound.
The ECHO liquid handling workstation was used to transfer the compound to a 384-well plate, with 10 gradient concentrations for each compound, 3-fold dilution, and duplicate wells. 1.5×10^4 cells (TR beta-UAS-bla HEK 293T Cell) or 1.0×10^4 cells (TR alpha-UAS-bla HEK 293T Cell) were seeded onto the 384-well plate. HEK 293T-TR beta cells were incubated for 16 hours in a 37° C. incubator, and HEK 293T-TR alpha cells were incubated for 22 hours. The LiveBLAzer™M-FRET B/G (CCF4-AM) substrate was added to the cell plate and incubated for 2 hours at room temperature, shielded from light. The Flexstation 3 instrument was utilized to detect the fluorescence values with the wavelength of 460 nm/530 nm emitted by the product under the excitation at 409 nm. By detecting the ratio of the two fluorescences (460 nm/530 nm), the EC50 of the compound was calculated using Graphpad Prism software. […] The Z-factor (greater than 0.5) is calculated to monitor the stability of each experiment.

The target in another data set is CYP2C9 (Homo sapiens (Human), UniProt P11712). The data set can be described thus: Inhibition of human liver microsomal cytochrome P450 isoenzyme CYP2C9. It is filed as in vitro ADME. Particulars: human liver microsomes. The protocol: (§1) To determine the inhibitory effect of the test compound WX001 on the activity of human liver microsomal cytochrome P450 isoenzymes (CYP1A2, CYP2C9, CYP2C19, CYP2D6, and CYP3A4). First, the test compound (10.0 mM) was diluted to prepare a working solution (100×the final concentration) with a concentration of 1.00 mM. Simultaneously, working solutions were respectively prepared for positive inhibitors of the P450 isoenzymes (CYP1A2, CYP2C9, CYP2C19, CYP2D6, CYP3A4 (with midazolam as a probe substrate), and CYP3A4 (with testosterone as a probe substrate)) and specific probe substrates thereof. Human liver microsomes, stored in a refrigerator at a temperature lower than −60° C., were thawed on ice, and once fully dissolved, were diluted with PB to prepare a working solution of a specific concentration (0.127 mg/mL). 20.0 μL of probe substrate was added to the reaction plate (20.0 μL of PB was added to the Blank wells), followed by the addition of 158 μL of human liver microsomal working solution to the reaction plate. The reaction plate was then placed on ice for later use. Then, 2.00 μL of the test compound (N=1) and specific inhibitors (N=2) were added to the corresponding wells. […] Lastly, the plate was sealed, shaken to ensure the content was thoroughly mixed, and analyzed by LC/MS/MS.
In general terms: Liver microsomes are vesicles of endoplasmic reticulum, rich in cytochrome P450 enzymes.

A further data set has as its target CYP3A4 (Homo sapiens (Human), UniProt P08684). Kind of data set: Inhibition of human liver microsomal cytochrome P450 isoenzyme CYP3A4. Particulars: human liver microsomes. It is filed as in vitro ADME. The protocol:
as §1

Another data set addresses THRα (Homo sapiens (Human), UniProt P10827). Kind of data set: GeneBLAzer TR alpha-UAS-bla HEK 293T cell-based agonist assay. To be noted: TR alpha-UAS-bla HEK 293T cells; for EC50: 22 hours incubation; for THRα maximum agnostic capability: T3 as positive control. The protocol: When a compound enters the cell and binds to THR, the receptor binds to the DNA binding region to form a complete GAL4 dimer that utilizes the GAL4-UAS system to activate β-lactamase expression, which then decomposes the substrate CCF4-AM (coumarin).
The LiveBLAzer™M-FRET B/G (CCF4-AM) substrate was added to the cell plate and incubated for 2 hours at room temperature, shielded from light. […] By detecting the ratio of the two fluorescences (460 nm/530 nm), the EC50 of the compound was calculated using Graphpad Prism software. […] The Z-factor (greater than 0.5) is calculated to monitor the stability of each experiment.

In another data set the target is CYP1A2 (Homo sapiens (Human), UniProt P05177). It is filed as in vitro ADME. Particulars: microsomes. The protocol: as §1
A further data set has as its target CYP2C19 (Homo sapiens (Human), UniProt P33261). The data set can be described thus: Inhibition of human liver microsomal cytochrome P450 isoenzyme CYP2C19. To be noted: human liver microsomes. It is filed as in vitro ADME. The protocol: as §1
The target in the next data set is CYP2D6 (Homo sapiens (Human), UniProt P10635). Kind of data set: Inhibition of human liver microsomal cytochrome P450 isoenzyme CYP2D6. Particulars: human liver microsomes. It is filed as in vitro ADME. The protocol:
as §1

Setting [2] is: rat, plasma, 30 mg/kg, oral, 30 mpk.

THRβ, sequence (P10828 whole entry, looked up, the tested form may be a part): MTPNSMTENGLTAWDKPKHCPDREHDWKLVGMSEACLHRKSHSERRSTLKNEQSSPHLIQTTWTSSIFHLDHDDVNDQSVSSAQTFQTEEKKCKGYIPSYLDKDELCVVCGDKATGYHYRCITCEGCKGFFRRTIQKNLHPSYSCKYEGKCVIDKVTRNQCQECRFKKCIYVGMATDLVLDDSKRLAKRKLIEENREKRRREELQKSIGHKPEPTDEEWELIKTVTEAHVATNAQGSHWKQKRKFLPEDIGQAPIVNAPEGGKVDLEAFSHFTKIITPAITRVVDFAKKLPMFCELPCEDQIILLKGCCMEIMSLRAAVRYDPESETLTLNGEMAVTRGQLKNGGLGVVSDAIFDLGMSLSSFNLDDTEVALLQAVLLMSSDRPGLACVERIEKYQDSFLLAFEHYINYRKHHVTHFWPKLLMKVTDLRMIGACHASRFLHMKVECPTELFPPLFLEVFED
THRα, sequence (P10827 other isoform, or with tags, fused parts or gaps isoform P10827-2): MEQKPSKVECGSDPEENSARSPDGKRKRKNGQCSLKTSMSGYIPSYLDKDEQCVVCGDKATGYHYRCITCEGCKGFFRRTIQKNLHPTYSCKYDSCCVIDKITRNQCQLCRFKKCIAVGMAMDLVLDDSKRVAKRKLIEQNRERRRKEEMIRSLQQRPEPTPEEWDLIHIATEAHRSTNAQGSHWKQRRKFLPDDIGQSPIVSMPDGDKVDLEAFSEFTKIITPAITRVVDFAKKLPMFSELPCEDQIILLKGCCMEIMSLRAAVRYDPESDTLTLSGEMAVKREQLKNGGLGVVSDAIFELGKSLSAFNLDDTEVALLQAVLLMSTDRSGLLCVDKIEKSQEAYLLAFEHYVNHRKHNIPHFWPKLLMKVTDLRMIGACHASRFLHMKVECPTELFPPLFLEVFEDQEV
CYP2D6, sequence (P10635 whole entry): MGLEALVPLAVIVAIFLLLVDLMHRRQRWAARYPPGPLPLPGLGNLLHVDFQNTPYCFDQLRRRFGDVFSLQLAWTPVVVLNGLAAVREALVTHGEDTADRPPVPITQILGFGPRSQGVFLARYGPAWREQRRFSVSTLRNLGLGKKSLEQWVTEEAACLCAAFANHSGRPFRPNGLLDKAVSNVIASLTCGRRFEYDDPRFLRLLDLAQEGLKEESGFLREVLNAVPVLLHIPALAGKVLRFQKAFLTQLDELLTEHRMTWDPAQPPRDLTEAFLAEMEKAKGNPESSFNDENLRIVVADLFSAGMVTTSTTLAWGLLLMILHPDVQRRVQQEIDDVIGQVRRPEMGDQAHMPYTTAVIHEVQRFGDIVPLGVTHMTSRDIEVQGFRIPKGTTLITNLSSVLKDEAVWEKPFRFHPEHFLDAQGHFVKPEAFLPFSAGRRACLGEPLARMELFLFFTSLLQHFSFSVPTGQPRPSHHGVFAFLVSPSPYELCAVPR
CYP2C9, sequence (P11712 whole entry): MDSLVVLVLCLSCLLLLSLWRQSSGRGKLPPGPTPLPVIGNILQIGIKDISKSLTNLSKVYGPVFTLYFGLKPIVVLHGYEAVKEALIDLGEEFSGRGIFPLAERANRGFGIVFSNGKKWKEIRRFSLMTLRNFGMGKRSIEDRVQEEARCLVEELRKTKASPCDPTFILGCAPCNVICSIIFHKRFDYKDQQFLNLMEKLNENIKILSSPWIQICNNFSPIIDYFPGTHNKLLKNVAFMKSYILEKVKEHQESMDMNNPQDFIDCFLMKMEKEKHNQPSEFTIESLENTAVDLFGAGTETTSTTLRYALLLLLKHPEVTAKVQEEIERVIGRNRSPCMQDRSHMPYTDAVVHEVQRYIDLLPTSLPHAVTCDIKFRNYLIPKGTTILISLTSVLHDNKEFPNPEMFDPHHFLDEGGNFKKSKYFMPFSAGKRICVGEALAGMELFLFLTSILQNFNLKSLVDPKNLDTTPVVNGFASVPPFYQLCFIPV
CYP3A4, sequence (P08684 whole entry): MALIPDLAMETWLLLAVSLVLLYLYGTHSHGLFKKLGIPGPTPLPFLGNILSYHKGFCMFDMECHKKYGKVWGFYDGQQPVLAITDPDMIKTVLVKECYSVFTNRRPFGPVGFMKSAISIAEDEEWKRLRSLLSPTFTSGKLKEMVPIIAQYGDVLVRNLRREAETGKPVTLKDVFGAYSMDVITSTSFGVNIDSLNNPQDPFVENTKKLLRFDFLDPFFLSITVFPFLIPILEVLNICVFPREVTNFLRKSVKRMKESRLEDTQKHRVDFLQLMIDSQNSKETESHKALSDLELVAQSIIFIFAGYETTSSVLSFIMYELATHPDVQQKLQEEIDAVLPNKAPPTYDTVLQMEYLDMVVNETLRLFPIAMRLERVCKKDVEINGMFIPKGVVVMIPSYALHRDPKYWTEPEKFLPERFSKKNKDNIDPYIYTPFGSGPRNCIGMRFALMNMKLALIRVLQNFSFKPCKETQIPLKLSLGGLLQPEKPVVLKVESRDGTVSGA
CYP2C19, sequence (P33261 whole entry): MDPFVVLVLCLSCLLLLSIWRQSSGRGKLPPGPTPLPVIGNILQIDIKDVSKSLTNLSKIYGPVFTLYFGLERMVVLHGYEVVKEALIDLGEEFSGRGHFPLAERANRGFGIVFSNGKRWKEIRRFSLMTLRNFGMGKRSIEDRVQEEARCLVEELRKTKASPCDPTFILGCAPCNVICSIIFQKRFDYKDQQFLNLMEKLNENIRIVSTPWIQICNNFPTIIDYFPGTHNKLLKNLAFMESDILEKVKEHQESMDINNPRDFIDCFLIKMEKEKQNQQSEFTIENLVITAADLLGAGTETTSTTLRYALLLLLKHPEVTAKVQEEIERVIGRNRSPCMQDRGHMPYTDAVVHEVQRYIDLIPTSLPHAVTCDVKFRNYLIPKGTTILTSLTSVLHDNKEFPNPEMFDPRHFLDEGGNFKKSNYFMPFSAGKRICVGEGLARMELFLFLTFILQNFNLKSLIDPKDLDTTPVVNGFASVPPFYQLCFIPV
CYP1A2, sequence (P05177 whole entry): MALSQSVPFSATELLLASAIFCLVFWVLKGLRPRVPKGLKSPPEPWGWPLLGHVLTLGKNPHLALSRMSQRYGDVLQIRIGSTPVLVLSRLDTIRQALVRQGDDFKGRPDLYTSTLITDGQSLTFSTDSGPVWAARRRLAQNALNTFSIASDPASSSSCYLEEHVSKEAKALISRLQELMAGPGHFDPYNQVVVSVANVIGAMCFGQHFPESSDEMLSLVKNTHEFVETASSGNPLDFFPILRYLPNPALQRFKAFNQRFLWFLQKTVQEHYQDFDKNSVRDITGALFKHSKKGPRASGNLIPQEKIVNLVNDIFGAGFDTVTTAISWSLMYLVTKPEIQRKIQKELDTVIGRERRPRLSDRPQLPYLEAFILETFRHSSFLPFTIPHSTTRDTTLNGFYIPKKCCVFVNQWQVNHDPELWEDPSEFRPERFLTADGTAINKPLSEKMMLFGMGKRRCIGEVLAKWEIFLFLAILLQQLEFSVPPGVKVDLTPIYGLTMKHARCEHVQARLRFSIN

Take `Cc1cc(NC(=O)c2noc(=O)[nH]2)cc(C)c1Cc1ccc(O)c2c1CCCC2` [WX001]: the “Area under the plasma concentration-time curve/Dosage DNAUC0-last” value was found to be 5343 nM. h/mpk in data set [1] (intravenous, 3 mpk) and 1939 nM. h/mpk in data set [1] (oral, 30 mpk). The Vd in data set [1] (rat, plasma, 3 mg/kg, intravenous, 3 mpk, read-out: Apparent volume of distribution Vdss) worked out at 0.411 L/kg. In data set [1] (rat, plasma, 3 mg/kg, intravenous, 3 mpk, read-out: Clearance CL), the clearance turned out to be 7.93 mL/min/kg. Also, the half-life in data set [1] (rat, plasma, 3 mg/kg, intravenous, 3 mpk) was 1.66 h; in data set [1] (setting [2]), 1.6 h. In data set [1] (setting [2]), the bioavailability turned out to be 36%. Further, the EC50 at THRβ is 39.4 nM; on THRα it was 122 nM. Also, at THRβ, the “THRß maximum agnostic capability” value is listed as 103%. The IC50 against CYP2C9 amounted to 3270 nM; against CYP3A4 (midazolam as probe substrate) it was 25400 nM; on CYP2C19, 5090 nM; against CYP2D6, 41600 nM. Besides, the “inhibition against CYP2C9 (in words)” value on CYP2C9 is “moderate inhibition”. Moreover, the “inhibitory effect on CYP3A4 (in words)” value at CYP3A4 is listed as “no inhibitory effects”. For the same molecule, the “THRα maximum agnostic capability” value at THRα is reported as 24%. Besides, the “inhibitory effect on CYP1A2 (in words)” value against CYP1A2 was “no inhibitory effects”. Besides, at CYP2C19, the “inhibitory effect on CYP2C19 (in words)” value is on record as “no inhibitory effects”. Moreover, the “inhibitory effect on CYP2D6 (in words)” value at CYP2D6 is listed as “no inhibitory effects”.

As for `Cc1cc(NC(=O)c2noc(=O)[nH]2)cc(C)c1Cc1ccc(O)c(Cc2ccccc2)c1` [WX002], at THRβ, the response was half-maximal at 85.5 nM (EC50) and the “THRß maximum agnostic capability” value was determined as 99%. Besides, at THRα, the EC50 turned out to be 1000 nM and the “THRα maximum agnostic capability” value is recorded as 101%.

For the molecule `Cc1cc(NC(=O)c2noc(=O)[nH]2)cc(C)c1Cc1cc(I)c(O)c2c1CCCC2` [WX005], at THRβ, the EC50 came out at 57.8 nM and the “THRß maximum agnostic capability” value is on record as 96%. Also, on THRα, the EC50 stood at 155 nM and the “THRα maximum agnostic capability” value was 85%.

As to `Cc1cc(NC(=O)c2noc(=O)[nH]2)cc(C)c1Cc1cc(F)c(O)c2c1CCCC2` [WX006], on THRβ, it took 105 nM to reach a half-maximal effect (EC50) and the “THRß maximum agnostic capability” value is reported as 90%. Besides, at THRα, the midpoint of the response, the EC50, lay at 435 nM and the “THRα maximum agnostic capability” value was 86%.

Broadly, the bioavailability is the share of a dose that reaches the circulation, judged against a reference dose that is usually intravenous. A higher bioavailability goes with much systemic uptake. The term EC50 denotes the concentration at which the effect is half-maximal. A higher EC50 goes with a less potent agent. A word on the IC50: it is the concentration at which inhibition is half-maximal. Low values mean inhibition by little substance, high ones a need for much substance.
